BindingDB's records for PubMed 11160654 (Kitasato University, 2001)

Biological target: Glutamate receptor 3 (Rattus norvegicus, UniProt P19492)
Sequence (P19492 whole entry): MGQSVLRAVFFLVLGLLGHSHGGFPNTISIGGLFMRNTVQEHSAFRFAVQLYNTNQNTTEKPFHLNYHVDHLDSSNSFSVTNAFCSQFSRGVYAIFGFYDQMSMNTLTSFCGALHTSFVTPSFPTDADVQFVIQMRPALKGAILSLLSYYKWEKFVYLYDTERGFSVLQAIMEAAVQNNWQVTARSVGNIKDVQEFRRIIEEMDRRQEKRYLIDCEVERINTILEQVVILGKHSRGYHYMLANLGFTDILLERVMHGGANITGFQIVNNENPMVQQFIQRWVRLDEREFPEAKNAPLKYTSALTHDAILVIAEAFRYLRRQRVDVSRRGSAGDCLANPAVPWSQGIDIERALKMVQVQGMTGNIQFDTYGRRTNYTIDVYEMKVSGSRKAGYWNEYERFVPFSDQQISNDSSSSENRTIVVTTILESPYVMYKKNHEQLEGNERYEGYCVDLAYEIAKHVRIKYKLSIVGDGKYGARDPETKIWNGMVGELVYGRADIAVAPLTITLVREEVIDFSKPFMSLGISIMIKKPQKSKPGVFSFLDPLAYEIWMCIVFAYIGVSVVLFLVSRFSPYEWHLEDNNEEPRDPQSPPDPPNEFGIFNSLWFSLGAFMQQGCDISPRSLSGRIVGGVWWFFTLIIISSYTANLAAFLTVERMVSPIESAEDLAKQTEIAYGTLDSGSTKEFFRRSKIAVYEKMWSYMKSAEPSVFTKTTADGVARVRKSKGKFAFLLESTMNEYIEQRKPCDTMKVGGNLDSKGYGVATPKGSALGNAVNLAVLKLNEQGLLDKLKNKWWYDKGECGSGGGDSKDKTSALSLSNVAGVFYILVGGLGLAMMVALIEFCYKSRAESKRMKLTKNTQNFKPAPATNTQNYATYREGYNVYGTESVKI

Question: Which Ki does the source give for `CN[C@H](CC(=O)O)C(=O)O` [NMDA] here?
Answer: 3.9 µM
